Assays:
Assay in all cases: relative viability (nuclei count vs DMSO), 5 days (fraction); higher = more cells survive
[1] = compound: COc1cc2nc(N3CCCN(C)CC3)nc(NC3CCN(Cc4ccccc4)CC3)c2cc1OC + CC(=O)c1c(C)c2cnc(Nc3ccc(N4CCNCC4)cn3)nc2n(C2CCCC2)c1=O [Palbociclib] (partner 0.5 µM)
How it was run: (§1)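 Lung cancer cell lines in 1536-well plates were dosed by pin tool the day after seeding, either with one drug alone or with a fixed anchor-drug dose plus five library-drug doses (not always all listed) in √10 steps. After 5 days, cells were fixed and their nuclei stained in one step (final 0.05% Triton X-100, 1% formaldehyde, 1 ug/ml Hoechst), then counted on 4× images. Relative viability is the nuclei count in treated wells divided by that in vehicle wells. Values are medians of duplicate plates.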

AZD6482 + Decitabine = compound: Cc1cc([C@@H](C)Nc2ccccc2C(=O)O)c2nc(N3CCOCC3)cc(=O)n2c1 [AZD6482] + Nc1ncn([C@H]2C[C@H](O)[C@@H](CO)O2)c(=O)n1 [Decitabine] (partner 2 µM)
How it was run: as §1

[2] = compound: COc1cc2nc(N3CCCN(C)CC3)nc(NC3CCN(Cc4ccccc4)CC3)c2cc1OC + NC(=O)Nc1cc(-c2cccc(F)c2)sc1C(=O)N[C@H]1CCCNC1 [AZD7762] (partner 0.2 µM)
How it was run: as §1

AZD6482 + Crizotinib = compound: Cc1cc([C@@H](C)Nc2ccccc2C(=O)O)c2nc(N3CCOCC3)cc(=O)n2c1 [AZD6482] + C[C@@H](Oc1cc(-c2cnn(C3CCNCC3)c2)cnc1N)c1c(Cl)ccc(F)c1Cl [Crizotinib] (partner 1 µM)
How it was run: as §1

Cell Line	relative viability ([1]; first compound 0.2 µM)	relative viability ([1]; first compound 0.6325 µM)	relative viability ([1]; first compound 2 µM)	relative viability ([1]; first compound 6.325 µM)	relative viability (AZD6482 + Decitabine; first compound 0.08 µM)	relative viability (AZD6482 + Decitabine; first compound 0.253 µM)	relative viability (AZD6482 + Decitabine; first compound 0.8 µM)	relative viability (AZD6482 + Decitabine; first compound 2.53 µM)	relative viability (AZD6482 + Decitabine; first compound 8 µM)	relative viability ([2]; first compound 0.2 µM)	relative viability ([2]; first compound 0.6325 µM)	relative viability ([2]; first compound 2 µM)	relative viability ([2]; first compound 6.325 µM)	relative viability (AZD6482 + Crizotinib; first compound 0.08 µM)	relative viability (AZD6482 + Crizotinib; first compound 0.253 µM)	relative viability (AZD6482 + Crizotinib; first compound 0.8 µM)	relative viability (AZD6482 + Crizotinib; first compound 2.53 µM)	relative viability (AZD6482 + Crizotinib; first compound 8 µM)
LU99A	0.379	0.38	0.371	0.412	0.803	0.858	0.968	0.801	0.775	0.383	0.314	0.301	0.285	0.609	0.495	0.591	0.466	0.471
ABC-1	0.718	0.682	0.754	0.6	0.902	1.14	0.985	1.26	0.947	0.753	0.772	0.79	0.91	0.853	0.969	1.03	0.899	0.801
NCI-H2170	0.383	0.406	0.37	0.352	0.427	0.443	0.432	0.423	0.442	0.936	0.809	0.892	0.833	1.11	1.15	1.23	1.05	0.851
NCI-H1299														0.956	0.946	1.04	0.942	0.989
EBC-1														0.19	0.154	0.212	0.216	0.2
NCI-H2347	0.46	0.433	0.385	0.422	0.474	0.565	0.555	0.52	0.449	0.697	0.714	0.839	0.76		0.609	0.581	0.425	0.498
NCI-H1993	0.582	0.721	0.77	0.748	0.526	0.481	0.598	0.436	0.458	0.73	0.844	0.816	0.826	0.671	0.74			0.764
NCI-H322M	0.468	0.531	0.435	0.481	0.657	0.617	0.674	0.537	0.603	0.48	0.665	0.444	0.549	0.769	0.826	0.79	0.627	0.741
NCI-H838	0.185	0.229	0.213	0.212	0.436	0.442	0.433	0.428	0.364	0.974	0.908	1.01	0.892	0.593	0.824	0.689	0.48	0.583
NCI-H1648		0.293		0.272	0.502	0.453	0.472		0.48		0.708		0.68					
COR-L23	0.34	0.266	0.362	0.265	0.418	0.386	0.456	0.396	0.366					0.467	0.733	0.749	0.489	0.478
COR-L 105	0.375	0.398	0.364	0.396	0.67	0.68	0.628	0.601	0.559					0.8	0.742	0.742	0.581	0.828
NCI-H596					0.865	0.937	0.972	1.01	0.946	1.16	1.03	1.23	1.06	0.792	0.824	1	0.943	0.871
NCI-H2023	0.379	0.337	0.4	0.0878	0.226	0.185	0.214	0.269	0.179					0.535	0.615	0.509	0.411	0.494
NCI-H1793	0.32	0.312	0.316	0.292	0.419	0.429	0.313	0.297	0.271	0.43	0.617	0.357	0.432					
NCI-H520	0.168	0.259	0.25	0.148	0.418	0.331	0.344	0.198	0.244					0.623	0.615	0.523		0.4
A549					0.27	0.12	0.209		0.347					0.73	0.722	0.754	0.405	0.431
NCI-H1563														0.783	0.821	0.82	0.663	0.769
NCI-H1395	0.642	0.605	0.618	0.565	0.584	0.601	0.636	0.496	0.489	0.413	0.446	0.37	0.335					
NCI-H2009	0.222	0.253	0.413	0.24	0.387	0.373	0.361	0.321	0.342					0.884	1.03	1.05	0.693	0.813
NCI-H522	0.716	1.18	0.859	0.915	0.627	0.6	0.586	0.585	0.755	0.901	0.791	0.986	0.792					
IA-LM														0.968	1.06	1.01		1.08
SK-LU-1	0.409	0.353	0.394	0.375		0.567	0.627	0.549	0.425						0.908	0.931	0.696	0.886
NCI-H1703										0.118		0.125	0.184	0.583	0.505	0.396	0.245	0.343
SW 900	0.538	0.442	0.566	0.46	0.412	0.419	0.45	0.418	0.434	0.62	0.564	0.611	0.577					
